According to patent publication US20230203098A1, “HUMAN TRANSFERRIN RECEPTOR BINDING PEPTIDE” (priority 2020, published 2023):
Like-named read-outs stand apart in the source and are kept apart here. Where a SMILES comes first, the peptide text is derived from it. Bridges are numbered along the chain shown (N, C = ends). [ ]: non-standard residue; d: D form. NMePhe(3-Cl) = CN[C@@H](Cc1cccc(Cl)c1)C(=O)O; NMeW = CN[C@@H](Cc1c[nH]c2ccccc12)C(=O)O; Lys(N3) = [N-]=[N+]=NCCCC[C@H](N)C(=O)O; NMeY = CN[C@@H](Cc1ccc(O)cc1)C(=O)O; PEG4 = NCCOCCOCCOCCOCCC(=O)O; hLys = NCCCCC[C@H](N)C(=O)O

Biological target: transferrin receptor (hTfR) (Homo sapiens, UniProt P02786)
Experiment: Intermolecular interaction evaluation test between transferrin receptor (hTfR) and peptide by surface plasmon resonance (SPR)
Type: binding
Outline: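 hTfR captured on Ni-NTA chip then amine-coupled; peptides run single-cycle kinetics at 5–100 nM in 10 mM HEPES pH 8.0, 150 mM NaCl, 0.05% Tween 20, 0.1% BSA, 1.0% DMSO. KD from least-squares curve fitting of sensorgrams.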

[1] = surface plasmon resonance, hTfR, read-out: KD value for hTfR by SPR (class symbol)
[2] = surface plasmon resonance, peptide vs hTfR, read-out: KD value, hTfR binding by SPR (class symbol)
[3] = binding to hTfR by SPR, Table 2 peptides, read-out: KD value (SPR) class

transferrin receptor (hTfR), sequence (P02786 whole entry): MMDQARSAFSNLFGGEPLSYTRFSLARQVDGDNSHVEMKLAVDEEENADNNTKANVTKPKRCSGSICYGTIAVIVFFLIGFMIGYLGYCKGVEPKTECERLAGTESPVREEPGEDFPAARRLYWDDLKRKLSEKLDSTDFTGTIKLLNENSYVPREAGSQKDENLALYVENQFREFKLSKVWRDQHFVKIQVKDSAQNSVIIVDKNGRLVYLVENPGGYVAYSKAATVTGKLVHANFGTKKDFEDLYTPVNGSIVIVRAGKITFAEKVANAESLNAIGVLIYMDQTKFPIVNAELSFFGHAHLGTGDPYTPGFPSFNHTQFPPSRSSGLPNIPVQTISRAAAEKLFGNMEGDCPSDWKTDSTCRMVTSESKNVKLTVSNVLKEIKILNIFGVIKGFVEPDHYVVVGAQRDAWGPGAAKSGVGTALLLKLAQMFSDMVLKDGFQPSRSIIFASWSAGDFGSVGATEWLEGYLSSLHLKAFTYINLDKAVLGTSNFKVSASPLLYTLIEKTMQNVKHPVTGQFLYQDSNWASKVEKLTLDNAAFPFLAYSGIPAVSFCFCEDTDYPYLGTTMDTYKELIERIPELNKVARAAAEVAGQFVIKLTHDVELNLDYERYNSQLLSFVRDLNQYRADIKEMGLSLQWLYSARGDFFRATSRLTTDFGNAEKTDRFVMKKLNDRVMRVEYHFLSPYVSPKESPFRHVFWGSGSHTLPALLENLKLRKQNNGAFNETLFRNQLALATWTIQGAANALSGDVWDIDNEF

How did the Kd (SPR, peptides, linker-added peptides and FITC conjugates, Patent ID 203-230, read-out: KD) turn out when `CC[C@H](C)[C@@H]1NC(=O)[C@H](Cc2ccc(OC)cc2)NC(=O)[C@H](Cc2ccc(O)cc2)NC(=O)[C@H](CC(N)=O)NC(=O)[C@H](Cc2c[nH]c3ccccc23)N(C)C(=O)[C@H](C(C)C)NC(=O)[C@H](Cc2cccc(Cl)c2)N(C)C(=O)[C@H](CCC(=O)O)NC(=O)[C@H](C)NC(=O)CSC[C@@H](C(N)=O)NC(=O)[C@H](Cc2ccc(O)cc2)N(C)C(=O)[C@H](Cc2ccccc2)NC(=O)[C@H](CCCCN)NC(=O)[C@H](C)NC(=O)[C@H]([C@@H](C)CC)NC1=O` [compound 225] ({CH2CO}-AE[NMePhe(3-Cl)]V[NMeW]NYY(Me)IIAKF[NMeY]C-NH2; thioether N-15) was run?
Its Kd is 1 to 100 nM.

`CC[C@H](C)[C@@H]1NC(=O)[C@H](Cc2ccc(O)cc2)NC(=O)[C@H](Cc2ccc(O)cc2)NC(=O)[C@H](CC(N)=O)NC(=O)[C@H](Cc2c[nH]c3ccccc23)NC(=O)[C@H](C(C)C)NC(=O)[C@H](Cc2ccccc2)N(C)C(=O)[C@H](C(C)C)NC(=O)[C@H](C)NC(=O)CSC[C@@H](C(=O)NCCOCCOCCOCCOCCOCCOCCOCCOCCOCCOCCOCCOCCC(N)=O)NC(=O)[C@H](CCCNC(=N)N)NC(=O)[C@H](Cc2ccc(O)cc2)NC(=O)[C@H](CCCNC(=N)N)NC(=O)[C@H](CCCNC(=N)N)NC(=O)[C@H]([C@@H](C)CC)NC1=O` [compound 127] was tested. Which Kd (SPR, hTfR No. 894 variants with PEG12c linker (Table 2), read-out: KD) did it give?
The Kd was 1 to 100 nM.

`CC[C@H](C)[C@@H]1NC(=O)[C@H](Cc2ccc(OC)cc2)NC(=O)[C@H](Cc2ccc(O)cc2)NC(=O)[C@H](CC(N)=O)NC(=O)[C@H](Cc2c[nH]c3ccccc23)N(C)C(=O)[C@H](C(C)C)NC(=O)[C@H](Cc2cccc(Cl)c2)N(C)C(=O)[C@H](C(C)C)NC(=O)[C@H](C)NC(=O)CSC[C@@H](C(N)=O)NC(=O)[C@H](Cc2ccc(O)cc2)N(C)C(=O)[C@H](Cc2cccc(Cl)c2)NC(=O)[C@@H](CCCNC(=N)N)NC(=O)[C@H](CCCNC(=N)N)NC(=O)[C@H]([C@@H](C)CC)NC1=O` [compound 393] was tested. Which Kd [1] did it give?
The Kd was 1 to 100 nM.

Which Kd [2] does the source give for `CC[C@H](C)[C@@H]1NC(=O)[C@H](Cc2ccc(OC)cc2)NC(=O)[C@H](Cc2ccc(O)cc2)NC(=O)[C@H](CC(N)=O)NC(=O)[C@H](Cc2cn(CC(=O)O)c3ccccc23)NC(=O)[C@H](C(C)C)NC(=O)[C@H](Cc2cccc(Cl)c2)N(C)C(=O)[C@H](C(C)C)NC(=O)[C@H](C)NC(=O)CSC[C@@H](C(N)=O)NC(=O)[C@H](Cc2ccc(O)cc2)N(C)C(=O)[C@H](Cc2ccccc2)NC(=O)[C@@H](CCCNC(=N)N)NC(=O)C(C)(C)NC(=O)[C@H]([C@@H](C)CC)NC1=O` [compound 303] here?
Its Kd is 1 to 100 nM.

With `CC[C@H](C)[C@@H]1NC(=O)[C@H](Cc2ccc(OC)cc2)NC(=O)[C@H](Cc2ccc(O)cc2)NC(=O)[C@H](CC(N)=O)NC(=O)[C@H](Cc2c[nH]c3ccccc23)NC(=O)[C@H](C(C)C)NC(=O)[C@H](Cc2cccc(Cl)c2)N(C)C(=O)[C@H](C(C)C)NC(=O)[C@H](C)NC(=O)CSC[C@@H](C(=O)NCC(=O)NCC(=O)N[C@@H](CO)C(=O)NCC(=O)N[C@@H](CO)C(=O)NCC(=O)N[C@@H](CCCCN=[N+]=[N-])C(N)=O)NC(=O)[C@H](Cc2ccc(O)cc2)N(C)C(=O)[C@H](Cc2ccccc2)NC(=O)[C@@H](CCCNC(=N)N)NC(=O)[C@H](CCCCN)NC(=O)[C@H]([C@@H](C)CC)NC1=O` [compound 314] ({CH2CO}-AV[NMePhe(3-Cl)]VWNYY(Me)IIK[dR]F[NMeY]CGGSGSG[Lys(N3)]-NH2; thioether N-15; C-terminus assumed) as the compound, how does the Kd [2] read?
Its Kd is 1 to 100 nM.

With `CC[C@H](C)[C@@H]1NC(=O)[C@H](Cc2ccc(O)cc2)NC(=O)[C@H](Cc2ccc(O)cc2)NC(=O)[C@H](CC(N)=O)NC(=O)[C@H](Cc2c[nH]c3ccccc23)NC(=O)[C@H](C(C)C)NC(=O)[C@H](Cc2ccccc2)N(C)C(=O)[C@H](C(C)C)NC(=O)[C@H](C)NC(=O)CSC[C@@H](C(=O)NCC(=O)NCC(=O)N[C@@H](CO)C(=O)N[C@@H](CCCCNC(=O)C2CCC(CN3C(=O)C=CC3=O)CC2)C(N)=O)NC(=O)[C@H](Cc2ccc(O)cc2)N(C)C(=O)[C@H](Cc2ccc(O)cc2)NC(=O)[C@H](CCCNC(=N)N)NC(=O)[C@H](CCCNC(=N)N)NC(=O)[C@H]([C@@H](C)CC)NC1=O` (stereo partly drawn) [compound 194] as the compound, how does the Kd (hTfR binding by SPR, hTfR No. 894 variant peptides, linker-added peptides and payload conjugates (Table 2), read-out: KD value obtained from the SPR measurement) read?
The Kd was 1 to 100 nM.

`CC[C@H](C)[C@@H]1NC(=O)[C@H](Cc2ccc(O)cc2)NC(=O)[C@H](Cc2ccc(O)cc2)NC(=O)[C@H](CC(N)=O)NC(=O)[C@H](Cc2c[nH]c3ccccc23)NC(=O)[C@H](C(C)C)NC(=O)[C@H](Cc2ccccc2)NC(=O)[C@H](C(C)C)NC(=O)[C@H](C)NC(=O)CSC[C@@H](C(N)=O)NC(=O)[C@H](Cc2ccc(O)cc2)N(C)C(=O)[C@H](Cc2ccc(O)cc2)NC(=O)[C@H](CCCNC(=N)N)NC(=O)[C@H](C)NC(=O)[C@H]([C@@H](C)CC)NC1=O` [compound 253] was tested. Which Kd [3] did it give?
Its Kd is 1 to 100 nM.

How did the Kd [3] turn out when `CC[C@H](C)[C@@H]1NC(=O)[C@H](Cc2ccc(O)cc2)NC(=O)[C@H](Cc2ccc(O)cc2)NC(=O)[C@H](CC(N)=O)NC(=O)[C@H](Cc2c[nH]c3ccccc23)NC(=O)[C@H](C(C)C)NC(=O)[C@H](Cc2ccccc2)NC(=O)[C@H](C(C)C)NC(=O)[C@H](C)NC(=O)CSC[C@@H](C(N)=O)NC(=O)[C@H](Cc2ccc(O)cc2)N(C)C(=O)[C@H](Cc2ccc(O)cc2)NC(=O)[C@H](CCCNC(=N)N)NC(=O)[C@H](CCCNC(=N)N)NC(=O)[C@H](CCCCN)NC1=O` [compound 249] ({CH2CO}-AVFVWNYYIKRRY[NMeY]C-NH2; thioether N-15) was run?
The Kd was under 1 nM.

For `CC[C@H](C)[C@@H]1NC(=O)[C@H](Cc2ccc(OC)cc2)NC(=O)[C@H](Cc2ccc(O)cc2)NC(=O)[C@H](CC(N)=O)NC(=O)[C@H](Cc2c[nH]c3ccccc23)N(C)C(=O)[C@H](C(C)C)NC(=O)[C@H](Cc2cccc(Cl)c2)N(C)C(=O)[C@H](C(C)C)NC(=O)[C@H](C)NC(=O)CSC[C@@H](C(=O)NCCOCCOCCOCCOCCC(N)=O)NC(=O)[C@H](Cc2ccc(O)cc2)N(C)C(=O)[C@H](Cc2ccccc2)NC(=O)[C@@H](CCCNC(=N)N)NC(=O)[C@H](CCCCCN)NC(=O)[C@H]([C@@H](C)CC)NC1=O` [compound 369] ({CH2CO}-AV[NMePhe(3-Cl)]V[NMeW]NYY(Me)II[hLys][dR]F[NMeY]C[PEG4]-NH2; thioether N-15), which Kd [1] is on record?
The Kd was 1 to 100 nM.
